These compounds were tested against T1, human polymorphonuclear leukocyte elastase (Homo sapiens, UniProt P08246) (assay: Inhibition of human polymorphonuclear leukocyte (granulocyte) elastase via hydrolysis of Boc-AAPAN or Boc-AAPVN). Details: pH 7.5, Table III, (per mole per second); read-out: kobs/I, second order rate constant of inactivation of the enzyme.
T1 construct: Crude extract of human polymorphonuclear leukocytes (PMN) containing elastase activity; endogenous in cells; host or cells: human polymorphonuclear leukocytes (crude extract)
T1 sequence (P08246 30-247 limits assumed): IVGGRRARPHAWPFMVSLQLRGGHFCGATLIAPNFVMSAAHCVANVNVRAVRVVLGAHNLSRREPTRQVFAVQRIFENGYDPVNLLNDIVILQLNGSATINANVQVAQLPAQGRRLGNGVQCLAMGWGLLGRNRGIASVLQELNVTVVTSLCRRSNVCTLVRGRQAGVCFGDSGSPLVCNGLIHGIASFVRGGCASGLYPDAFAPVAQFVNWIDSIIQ
Assay type: biochemical
Procedure: Enzyme Assays for the Inhibition of Human Polymorphonuclear Leukocyte Elastase Via Hydrolysis of N-t-Boc-alanyl-alanyl-prolylalanine-p-nitroanilide (Boc-AAPAN) or N-t-Boc-alanyl-prolylvaline-p-nitroanilide (Boc-AAPVN) Reagent:
0.05M TES (N-tris[hydroxymethyl]methyl-2-amino-ethanesulfonic acid) Buffer, pH 7.5.
0.2 mM Boc-AAPAN or Boc-AAPVN.
To prepare substrate, the solid was first dissolved in 10.0 ml DMSO. Buffer at pH 7.5 was then added to a final volume of 100 ml.
Crude extract of human polymorphonuclear leukocytes (PMN) containing elastase activity.
Inhibitors (azetidinones) to be tested dissolved in DMSO just before use.
To 1.0 ml of 0.2 mM Boc-AAPAN in a cuvette, 0.01-0.1 ml of DMSO with or without inhibitor was added. After mixing, a measurement was taken at 410 mμ to detect any spontaneous hydrolysis due to presence of test compound. 0.05 Milliliters of PMN extract was then added and the ΔOD/min at 410 mμ was measured and recorded. Beckman model 35 spectrophotometer was used.
Results were also expressed as Ki, the micromolar concentration of the inhibitor (μM) giving 50% of the control enzyme activity; or as ^k obs/I which is the second order rate constant in per mole per second for inactivation of the enzyme.
The elastase activity in the crude PMN extract may vary from one preparation to another. A control of each new batch is run, and the volume added in the assay procedure is adjusted according to activity.

kinact/KI	Compound
51800 M⁻¹ s⁻¹	CCC1(CC)C(=O)N(C(=O)NCc2ccc(-c3ccccc3)cc2)C1OCC(N)=O (stereo not drawn) [Table III: OCH2 CONH2; CH2Ph-4-Ph]
2900 M⁻¹ s⁻¹	CCC1(CC)C(=O)N(C(=O)NCc2ccc(-c3ccccc3)cc2)C1OCC(=O)O (stereo not drawn) [Table III: OCH2 COOH; CH2 Ph-4-Ph]
103000 M⁻¹ s⁻¹	CCC(NC(=O)N1C(=O)C(CC)(CC)C1OCC(N)=O)c1ccccc1 (stereo not drawn) [Table III: OCH2CONH2; CH(Et)Ph]
5710 M⁻¹ s⁻¹	CCC(NC(=O)N1C(=O)C(CC)(CC)C1OCC(=O)O)c1ccccc1 (stereo not drawn) [Table III: OCH2COOH; CH(Et)Ph]
357 M⁻¹ s⁻¹	CCC1(CC)C(=O)N(C(=O)NCc2ccccc2)C1n1ccccc1=O (stereo not drawn) [Table III: [2H-1-pyridonyl]; CH2 Ph]

Same assay, conditions: pH 7.5, Table IV, (per mole per second); read-out: kobs/I, second order rate constant of inactivation of the enzyme

kinact/KI	Compound
10100 M⁻¹ s⁻¹	CCC1C(=O)N(C(=O)N2CCc3ccccc3C2)C1Oc1ccc(C(=O)O)cc1 (stereo not drawn) [Table IV: C2 H5; H; O-(4-COOHPh); drawing 46]

Same assay, conditions: pH 7.5, Table V, (per mole per second); read-out: kobs/I, second order rate constant of inactivation of the enzyme

Compound	kinact/KI
CC[C@@H](NC(=O)N1C(=O)C(CC)(CC)[C@@H]1Oc1ccc(CC(=O)O)cc1)c1ccccc1 [Table V: 4-CH2 COOH; Et; H]	140000 M⁻¹ s⁻¹
CCC1(CC)C(=O)N(C(=O)N[C@H](COC)c2ccccc2)[C@H]1Oc1ccc(C(=O)O)cc1 [Table V: 4-COOH; CH2 OMe; H]	6090 M⁻¹ s⁻¹
CC[C@@H](NC(=O)N1C(=O)C(CC)(CC)[C@@H]1Oc1ccc(C(=O)O)cc1)c1ccccc1 [Table V: 4-COOH; Et; H]	92000 M⁻¹ s⁻¹
CCC1(CC)C(=O)N(C(=O)N[C@H](C)c2ccc(C)cc2)[C@H]1Oc1ccc(C(=O)O)cc1 [Table V: 4-COOH; Me; 4-Me]	47000 M⁻¹ s⁻¹
CCC1(CC)C(=O)N(C(=O)N[C@H](Cc2ccccc2)c2ccccc2)[C@H]1Oc1ccc(C(=O)O)cc1 [Table V: 4-COOH; PhCH2; H]	25000 M⁻¹ s⁻¹

Other lines, results leading:

kinact/KI	Compound
227000 M⁻¹ s⁻¹	CCC[C@@H](NC(=O)N1C(=O)C(CC)(CC)[C@@H]1Oc1ccc(CC(=O)O)cc1)c1ccccc1 [Table V: 4-CH2 COOH; nPr; H]
120000 M⁻¹ s⁻¹	CCC[C@@H](NC(=O)N1C(=O)C(CC)(CC)[C@@H]1Oc1ccc(C(=O)O)cc1)c1ccccc1 [Table V: 4-COOH; nPr; H]

Same assay, conditions: pH 7.5, Table VI, (per mole per second); read-out: kobs/I, second order rate constant of inactivation of the enzyme

Compound	kinact/KI
CC[C@@H](NC(=O)N1C(=O)C(CC)(CC)[C@@H]1Oc1cc(C)c(C(=O)O)c(C)c1)c1ccccc1 [Table VI: 3,5-Me2-4-COOH; Et; H]	25000 M⁻¹ s⁻¹
CC[C@@H](NC(=O)N1C(=O)C(CC)(CC)[C@@H]1Oc1cccc(CC(=O)O)c1)c1ccccc1 [Table VI: 3-CH2 COOH; Et; H]	81000 M⁻¹ s⁻¹
CCC1(CC)C(=O)N(C(=O)N[C@H](C)c2ccccc2)[C@H]1Oc1cccc(CC(=O)O)c1 [Table VI: 3-CH2 COOH; Me; H]	5880 M⁻¹ s⁻¹
CCC[C@@H](NC(=O)N1C(=O)C(CC)(CC)[C@@H]1Oc1ccc(CC(=O)O)c(Cl)c1)c1ccc(C)cc1 [Table VI: 3-Cl,4-CH2 COOH; nPr; 4-Me, (4S)-3,3-Diethyl-1-[(R)-α-n-propyl-(4-methyl)benzylaminocarbonyl]-4-[(4-carboxymethyl-3-chloro)phenoxy]azetidin-2-one]	589000 M⁻¹ s⁻¹
CCC[C@@H](NC(=O)N1C(=O)C(CC)(CC)[C@@H]1Oc1ccc(C(=O)O)c(Cl)c1)c1ccc(C)cc1 [Table VI: 3-Cl,4-COOH; nPr; 4-Me, (4S)-3,3-Diethyl-1-[(R)-α-n-propyl-(4-methyl)benzylaminocarbonyl]-4-[(4-carboxy-3-chloro)phenoxy]-azetidin-2-one]	621000 M⁻¹ s⁻¹
CCC[C@@H](NC(=O)N1C(=O)C(CC)(CC)[C@@H]1Oc1ccc(CC(=O)O)c(C)c1)c1ccc(C)cc1 [Table VI: 3-Me,4-CH2 COOH; nPr; 4-Me]	998000 M⁻¹ s⁻¹
CCC1(CC)C(=O)N(C(=O)N[C@H](C)c2ccccc2)[C@H]1Oc1ccc(CCC(=O)O)cc1 [Table VI: 4-(CH2)2 COOH; Me; H]	9480 M⁻¹ s⁻¹
CCC1(CC)C(=O)N(C(=O)N[C@H](C)c2ccccc2)[C@H]1Oc1ccc(CC(=O)O)cc1 [Table VI: 4-CH2 COOH; Me; H]	8370 M⁻¹ s⁻¹
C=CC[C@@H](NC(=O)N1C(=O)C(CC)(CC)[C@@H]1Oc1ccc(CC(=O)O)cc1)c1ccc(C)cc1 [Table VI: 4-CH2 COOH; allyl; 4-Me, (4S)-3,3-diethyl-1-[(R)-α-allyl-(4-methyl)benzyl-aminocarbonyl]-4-[(4-carboxymethyl)phenoxy]azetidin-2-one]	664000 M⁻¹ s⁻¹
CCC[C@@H](NC(=O)N1C(=O)C(CC)(CC)[C@@H]1Oc1ccc(CC(=O)O)cc1)c1ccc(C)cc1 [Table VI: 4-CH2 COOH; nPr; 4-Me, (4S)-3,3-diethyl-1-[(R)-α-n-propyl-(4-methyl)-benzylaminocarbonyl]-4-[(4-carboxymethyl)-phenoxy]azetidin-2-one]	557000 M⁻¹ s⁻¹
CCC[C@@H](NC(=O)N1C(=O)C(CC)(CC)[C@@H]1Oc1ccc(CC(=O)O)cc1)c1ccccc1 [Table VI: 4-CH2 COOH; nPr; H, (4S)-3,3-diethyl-1-[(R)-α-n-propylbenzylamino-carbonyl]-4-[(4-carboxymethyl)phenoxy]azetidin-2-one]	188000 M⁻¹ s⁻¹
CCC1(CC)C(=O)N(C(=O)N[C@H](C)c2ccccc2)[C@H]1Oc1ccc(C=CC(=O)O)cc1 [Table VI: 4-CHCHCOOH; Me; H]	9100 M⁻¹ s⁻¹
CC[C@@H](NC(=O)N1C(=O)C(CC)(CC)[C@@H]1Oc1ccc(C(=O)CCC(=O)O)cc1)c1ccccc1 [Table VI: 4-CO(CH2)2 COOH; Et; H]	272000 M⁻¹ s⁻¹
CCC1(CC)C(=O)N(C(=O)N[C@@H](COC)c2ccccc2)[C@H]1Oc1ccc(C(=O)O)cc1 [Table VI: 4-COOH; CH2 OMe(R); H]	6980 M⁻¹ s⁻¹
CC[C@@H](NC(=O)N1C(=O)C(CC)(CC)[C@@H]1Oc1ccc(C(=O)O)cc1)c1ccccc1 [Table VI: 4-COOH; Et; H]	76200 M⁻¹ s⁻¹
CCC1(CC)C(=O)N(C(=O)N[C@@H](C)c2ccc(-c3ccccc3)cc2)[C@H]1Oc1ccc(C(=O)O)cc1 [Table VI: 4-COOH; Me(s); 4-Ph]	49200 M⁻¹ s⁻¹
CCC1(CC)C(=O)N(C(=O)N[C@H](C)c2ccc(-c3ccccc3Cl)cc2)[C@H]1Oc1ccc(C(=O)O)cc1 [Table VI: 4-COOH; Me; 4-(2'-ClPh)]	245000 M⁻¹ s⁻¹
CCC1(CC)C(=O)N(C(=O)N[C@H](C)c2ccccc2)[C@H]1Oc1ccc(C(=O)O)cc1 [Table VI: 4-COOH; Me; H]	4020 M⁻¹ s⁻¹
CCC1(CC)C(=O)N(C(=O)N[C@H](c2ccccc2)C(C)C)[C@H]1Oc1ccc(C(=O)O)cc1 [Table VI: 4-COOH; iPr(S); H]	4740 M⁻¹ s⁻¹
CCC1(CC)C(=O)N(C(=O)N[C@@H](c2ccccc2)C(C)C)[C@H]1Oc1ccc(C(=O)O)cc1 [Table VI: 4-COOH; iPr; H]	177000 M⁻¹ s⁻¹

Second part, the compound after the results:

kinact/KI	Compound
637000 M⁻¹ s⁻¹	CCC[C@@H](NC(=O)N1C(=O)C(CC)(CC)[C@@H]1Oc1ccc(CC(=O)O)c(F)c1)c1ccc(C)cc1 [Table VI: 3-F,4-CH2 COOH; nPr; 4-Me, (4S)-3,3-Diethyl-1-[(R)-α-n-propyl-(4-methyl)benzylaminocarbonyl]-4-[(4-carboxymethyl-3-fluoro)phenoxy]azetidin-2-one]
464000 M⁻¹ s⁻¹	CCC[C@@H](NC(=O)N1C(=O)C(CC)(CC)[C@@H]1Oc1ccc(C(=O)O)c(F)c1)c1ccc(C)cc1 [Table VI: 3-F,4-COOH; nPr; 4-Me, (4S)-3,3-Diethyl-1-[(R)-α-n-propyl-(4-methyl)benzylaminocarbonyl]-4-[(4-carboxy-3-fluoro)phenoxy]-azetidin-2-one]
186000 M⁻¹ s⁻¹	CCC[C@@H](NC(=O)N1C(=O)C(CC)(CC)[C@@H]1Oc1ccc(C(=O)O)c(C)c1)c1ccc(C)cc1 [Table VI: 3-Me,4-COOH; nPr; 4-Me, (4S)-3,3-diethyl-1-[(R)-α-n-propyl-(4-methyl)benzylaminocarbonyl]-4-[(4-carboxy-3-methyl)phenoxy]azetidin-2-one]
125000 M⁻¹ s⁻¹	CC[C@@H](NC(=O)N1C(=O)C(CC)(CC)[C@@H]1Oc1ccc(C(=O)O)c(O)c1)c1ccccc1 [Table VI: 3-OH-4-COOH; Et; H]
11000 M⁻¹ s⁻¹	CCC1(CC)C(=O)N(C(=O)N[C@@H](COC)c2ccccc2)[C@H]1Oc1ccc(CC(=O)O)cc1 [Table VI: 4-CH2 COOH; CH2 OMe(R); H]
126000 M⁻¹ s⁻¹	CC[C@@H](NC(=O)N1C(=O)C(CC)(CC)[C@@H]1Oc1ccc(CC(=O)O)cc1)c1ccccc1 [Table VI: 4-CH2 COOH; Et; H, (4S)-3,3-diethyl-1-[(R)-α-ethylbenzyl-aminocarbonyl]-4-[(4-carboxymethyl)phenoxy]azetidin-2-one]
37100 M⁻¹ s⁻¹	CCC1(CC)C(=O)N(C(=O)N[C@H](C)c2ccccc2)[C@H]1Oc1ccc(C(=O)CCC(=O)O)cc1 [Table VI: 4-CO(CH2)2COOH; Me; H]
6980 M⁻¹ s⁻¹	CCC1(CC)C(=O)N(C(=O)N[C@H](COC)c2ccccc2)[C@H]1Oc1ccc(C(=O)O)cc1 [Table VI: 4-COOH; CH2 OMe(s); H]
26400 M⁻¹ s⁻¹	CC[C@@H](NC(=O)N1C(=O)C(CC)(CC)[C@@H]1Oc1ccc(C(=O)O)cc1)c1ccc(-c2ccccc2)cc1 [Table VI: 4-COOH; Et; 4-Ph]
10700 M⁻¹ s⁻¹	CCC1(CC)C(=O)N(C(=O)N[C@H](C)c2ccc(C)cc2)[C@H]1Oc1ccc(C(=O)O)cc1 [Table VI: 4-COOH; Me; 4-Me]
74000 M⁻¹ s⁻¹	CCC1(CC)C(=O)N(C(=O)N[C@H](C)c2ccc(-c3ccccc3)cc2)[C@H]1Oc1ccc(C(=O)O)cc1 [Table VI: 4-COOH; Me; 4-Ph]
67800 M⁻¹ s⁻¹	CCC1(CC)C(=O)N(C(=O)N[C@H](c2ccccc2)c2ccc(-c3ccccc3)cc2)[C@H]1Oc1ccc(C(=O)O)cc1 [Table VI: 4-COOH; Ph; 4-Ph]

Source: patent US5229381A, “Substituted azetidinones as anti-inflammatory and antidegenerative agents” (Merck & Co., Inc., priority 1991, dated 1993)
